Source: patent US9204643B2, “Temperature stable cloquintocet-mexyl aqueous compositions” (Dow AgroSciences LLC, priority 2012, dated 2015)

Columns and labels:
[1] = Storage of hydrated CQCM/pyroxsulam concentrate two weeks at 54° C., chemical stability; assay type: physicochemical; conditions: for Chemical Stability: in hydrated CQCM/pyroxsulam concentrate
Procedure: The aqueous phase was formed by combining water, propylene glycol, antifoam, and wetter surfactant (SYNPERONIC 13/6.5; Croda USA) in a vessel. Powdered anhydrous CQCM was added to the aqueous phase and mixed with a low shear turbine type agitator for 1 hour or until the CQCM was fully converted to the hydrate. A tallow or coco-amine 15 mole ethoxylate (e.g., ETHOMEEN C-25; Akzo Nobel), and MORWET D-425 (Akzo Nobel) were added and mixed in with high shear agitation, followed by the addition of the remaining ingredients shown in Table 4. KELZAN S is a thickener commercially available from CPKelco; Atlanta, Ga. The slurry was then processed through a bead mill to yield the finished product. Short term accelerated storage testing was conducted using freeze/thaw (F/T) conditions during which the temperature was cycled between about −10° C. and 40° C. in a 2 hour period after remaining at −10° C. or 40° C. for 24 hours, as in Example 1. Samples of the composition containing pyroxsulam were also stored for two weeks at 54° C. to evaluate chemical stability of the CQCM […].

[2] = One year storage stability of hydrated CQCM/pyroxsulam concentrate in an unheated shed; assay type: physicochemical
Procedure: A 10 L production batch of the composition shown in Table 4 was prepared, dispatched for field trials in Australia, and stored for 1 year in an unheated shed subjected to temperatures ranging from −4° C. to 43° C.

Row | Chemical Analysis (content in concentrate) ([1]; 54° C. (2 weeks)) [% w/w] | Chemical Stability ([1]; 54° C. (2 weeks)) [%] | Chemical Analysis (content in concentrate) ([1]; initial composition) [% w/w] | Chemical Stability: Content ([2]; after 1 year, −4° C. to 43° C.) | Chemical Stability: Retention ([2]; after 1 year, −4° C. to 43° C.) | Chemical Stability: Content ([2]; initial) | Compound
1 | 13.24 | 97 | 13.69 | CQCM: 14.40 % w/w | CQCM: 102% | CQCM: 14.15 % w/w | CCCCCC(C)OC(=O)COc1ccc(Cl)c2cccnc12 (stereo not drawn) [CQCM, Cloquintocet-mexyl]
2 | 4.73 | 102 | 4.65 | Pyroxsulam: 4.84 % w/w | Pyroxsulam: 104% | Pyroxsulam: 4.65 % w/w | COc1cc(OC)n2nc(NS(=O)(=O)c3c(C(F)(F)F)ccnc3OC)nc2n1 [Pyroxsulam]
